Test results reported in ChEMBL document CHEMBL3751838, “Cytotoxic Activity of Salicylic Acid-Containing Drug Models with Ionic and Covalent Binding” (ACS Med Chem Lett, 2015).

Key:
[1] = Cytotoxicity against human Caco2 cells after 24 hrs by MTT assay; assay type: functional, cell-based, Caco-2
cells = assay type: ADME, cell-based; settings: Homo sapiens, 3215LS, 24 h
Description: Cytotoxicity against human 3215LS cells after 24 hrs by MTT assay

[2] = Aqueous solubility of compound at room temperature; assay type: physicochemical; settings: water

| SMILES | IC50 ([1]; caco-2) | IC50 ([1]; Homo sapiens, Caco-2, 24 h) | also measured |
| --- | --- | --- | --- |
| CCCCn1cc[n+](C)c1 [listing 1 of 3 here] | 18.8 mM |  |  |
| CCCCCCn1cc[n+](C)c1 [listing 1 of 2 here] | 6.21 mM |  |  |
| CCn1cc[n+](C)c1 [listing 1 of 2 here] | 32.1 mM |  |  |
| CCCCn1cc[n+](C)c1 [listing 2 of 3 here] | 11.2 mM |  |  |
| CCCCCCn1cc[n+](C)c1 [listing 2 of 2 here] | 1.96 mM |  |  |
| C[n+]1ccn(CCCOC(=O)c2ccccc2O)c1 |  | 2.55 mM | IC50 (cells): 3.19 mM |
| C[n+]1ccn(CCOC(=O)c2ccccc2O)c1.[Cl-] | 3.82 mM |  | solubility [2]: 267 mg/mL |
| COC(=O)[C@H](C)N |  | 6.24 mM | IC50 (cells): 2.63 mM |
| C[n+]1ccn(CCOC(=O)c2ccccc2O)c1 |  | 4.77 mM |  |
| CCn1cc[n+](C)c1 [listing 2 of 2 here] | 5.97 mM |  |  |
| CCCCn1cc[n+](C)c1 [listing 3 of 3 here] | 4.34 mM |  |  |
| O=C(O)c1ccccc1O [SALICYLIC ACID] |  | 5 mM | IC50 (cells): 1.14 mM |
